Assay type in all cases: cell-based, human
One test deals with BT474 cells. Put plainly: SLC6A14 and ER mRNA by RT-PCR after estradiol/antiestrogen treatment. The settings on record: 24 h. On the procedure: (§1) FIGS. 2A-2C. Regulation of SLC6A14 expression by estrogen/ER. In FIG. 2A, ZR75.1 and BT474 cells were cultured for 5-6 passages in control medium (10% fetal bovine serum with phenol red) and phenol red-free medium (10% or 5% charcoal-stripped fetal bovine serum), and then the levels of ERa mRNA and SLC6A14 mRNA were determined by RT-PCR (P1, P2, P3, P4, P5, and P6 refer to passage numbers). In FIG. 2B, BT474 cells were treated with estradiol (10 nM) in the presence or absence of antiestrogens (1 μM) for 24 h, and then used for RT-PCR analysis of SLC6A14 mRNA and ERa mRNA (E2, estradiol; TAM, tamoxifen; 4-OH TAM, 4-hydroxytamoxifen; ICI 182780, FULVESTRANT™). […] Following the treatment, the reporter activity was measured. […]
(§2) Analysis of SLC6A14 as an estrogen/ER target. The influence of estrogen on SLC6A14 expression was assessed in ER-positive breast cancer cells (ZR75.1 and BT474) by culturing them for several passages in the absence of phenol red, and then monitoring the levels of SLC6A14 mRNA. […] Luciferase activity was measured in cell lysates using Luciferase Assay Reagent (Promega). β-galactosidase activity in the same cell lysates was used for normalization of the promoter activity for differences in transfection efficiency.

Test [1] relates to SLC6A14 promoter in BT474 cells. As to the kind of experiment: SLC6A14-promoter luciferase reporter assay. Particulars: BT474, estradiol 10 nM, normalized with β-galactosidase activity. On the procedure:
as §1, §2

The subject of another test is MCF7 cells. Put plainly: SLC6A14 mRNA by RT-PCR in phenol red-free medium with or without estradiol. The settings on record: estradiol 10 nM, 24 h, versus absence of estradiol. On the procedure:
FIG. 11. Estrogen-dependent suppression of the efficacy of α-MT to induce ASNS and CHOP expression in MCF7 cells. MCF7 cells were cultured in a phenol red-free medium in the absence or presence of estradiol (E2, 10 nM) for 24 h and then treated without or with α-MT (2.5 mM, 24 h). The cells were then used for analysis of SLC6A14, asparagine synthetase (ASNS), and CHOP mRNA levels by RT-PCR. Hypoxanthine/guanine phosphoribosyltransferase-1 (HPRT1) mRNA levels were used as an internal control.
RT-PCR. Total RNA was isolated using TRIZOL™ (Invitrogen). 2 μg of RNA was reverse transcribed using the GeneAmp PCR System (Applied Biosystems, Branchburg, N.J.). PCR reaction was performed under optimal conditions specific for each of the primer pairs. GAPDH (glyceraldehyde-3-phosphate dehydrogenase) or HPRT1 (hypoxanthine/guanine phosphoribosyl transferase-1) were used as internal controls. PCR products were size-fractionated on agarose gel, stained with ethidium bromide and imaged using Alpha Imager (Santa Clara, Calif.). Densitometry was performed on PCR bands and normalized to the internal control. Normalized values were used to compare mRNA levels of target genes. Primers used for PCR were as follows.

Regarding `C[C@]12CC[C@@H]3c4ccc(O)cc4CC[C@H]3[C@@H]1CC[C@@H]2O` [estradiol], the “SLC6A14 mRNA levels” value in the test on BT474 cells (BT474, estradiol 10 nM) is reported as “increased”. Moreover, the “expression of ER” value in the test on BT474 cells (BT474, estradiol) is given as “did not have any noticeable effect”. For the same compound, the “enhancement of SLC6A14-promoter (luciferase) activity” value in test [1] stood at 6 fold. For the same compound, the “expression of SLC6A14” value in the test on MCF7 cells is “higher”.

Values taken from patent US20140024663A1, “ATB(0,+) AMINO ACID TRANSPORTER AS A DRUG TARGET FOR TREATMENT OF ESTROGEN RECEPTOR-POSITIVE BREAST CANCER” (GEORGIA HEALTH SCIENCES UNIVERSITY RESEARCH INSTITUTE, INC., priority 2012, published 2014).
